Results published in publication PMC3901029 (Biochemical and biophysical research communications, 2013).

Target: MJ (MJ0796-G174W-G14C, single-Cys mutant based on Cys-less MJ0796; isolated nucleotide-binding domain) (Methanocaldococcus jannaschii, UniProt Q58206, C128I/C53G/G14C/G174W/K44A)
Experiment: Trp174 fluorescence quenching

Chain of MJ (MJ0796-G174W-G14C, single-Cys mutant based on Cys-less MJ0796; isolated nucleotide-binding domain) (Q58206 whole entry G14C/K44A/C53G/C128I/G174W, the tested form may be a part): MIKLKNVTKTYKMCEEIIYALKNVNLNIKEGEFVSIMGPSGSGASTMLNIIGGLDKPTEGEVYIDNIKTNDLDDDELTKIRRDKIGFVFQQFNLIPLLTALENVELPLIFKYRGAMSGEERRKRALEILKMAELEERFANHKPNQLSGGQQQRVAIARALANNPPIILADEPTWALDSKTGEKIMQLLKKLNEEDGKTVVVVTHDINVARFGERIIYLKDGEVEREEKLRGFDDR

Kd: 70 ± 13 µM
SMILES: Nc1ncnc2c1ncn2[C@@H]1O[C@H](COP(=O)(O)OP(=O)(O)OP(=O)(O)O)[C@@H](O)[C@H]1O [ATP]
